Assay results published in US7582663B2, “Biaromatic compounds which activate PPARγ type receptors and cosmetic/pharmaceutical compositions comprised thereof” (Galderma Research & Development, priority 2002, dated 2009).
pKd: −log10 of the molar value.

Each compound was assayed against T1, PPARγ (Homo sapiens, UniProt P37231) (assay: Crossed-curve PPAR transactivation test (PPARγ)). Settings: HeLN cells stably transfected with Gal-hPPARγ and luciferase reporter; Schild regression against reference agonist; n.a. means not active; read-out: PPARγ Kd app.
T1 sequence (P37231 238-505 limits assumed): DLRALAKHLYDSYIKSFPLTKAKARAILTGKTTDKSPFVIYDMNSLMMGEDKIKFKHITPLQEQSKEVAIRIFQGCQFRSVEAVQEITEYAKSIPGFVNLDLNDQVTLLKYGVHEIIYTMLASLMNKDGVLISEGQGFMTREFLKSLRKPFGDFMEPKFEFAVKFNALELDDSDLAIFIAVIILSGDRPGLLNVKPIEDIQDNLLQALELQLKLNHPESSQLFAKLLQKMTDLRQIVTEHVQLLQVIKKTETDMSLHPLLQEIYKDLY
Assay type: cell-based
Protocol: The activation of receptors with an agonist (activator) in HeLN cells leads to the expression of a reporter gene, luciferase, which, in the presence of a substrate, generates light. The modulation of the receptors is measured by quantifying the luminescence produced after incubating the cells in the presence of a reference agonist. The ligands displace the agonist from its site. The measurement of the activity is performed by quantifying the light produced. This measurement makes it possible to determine the modulatory activity of the compounds according to the invention by determining the constant that is the affinity of the molecule for the receptor. Since this value can fluctuate depending on the basal activity and the expression of the receptor, it is referred to as Kd apparent (KdApp in nM).
This is 88 measurement points for 1 product and 1 receptor. The remaining 8 wells are used for repeatability controls.
Measurements are also taken for total agonist controls with the same products.
The HeLN cell lines used are stable transfectants containing the plasmids ERE-βGlob-Luc-SV-Neo (reporter gene) and PPAR (α, δ, γ) Gal-hPPAR. These cells are inoculated into 96-well plates at a rate of 10 000 cells per well in 100 μl of DMEM medium without phenol red and supplemented with 10% of defatted calf serum. The plates are then incubated at 37° C. and 7% CO2 for 16 hours.
The various dilutions of the test products and of the reference ligand are added at a rate of 5 μl per well. The plates are then incubated for 18 hours at 37° C. and 7% CO2. The culture medium is removed by turning over and 100 μl of a 1:1 PBS/luciferine mixture are added to each well. After 5 minutes, the plates are read by the luminescence detector.

pKd | SMILES
6.60 | CCCc1nnc(C(Cc2ccc(-c3cccc(CN(C)C(=O)c4ccc5cc(OCOCCOC)ccc5c4)c3)cc2)OCC)o1 (stereo not drawn) [Example 1, N-{4′-[2-ethoxy-2-(5-propyl[1,3,4]oxadiazol-2-yl)ethyl]biphenyl-3-ylmethyl}-N-methyl-6-(2-methoxyethoxymethoxy)naphthalene-2-carboxylamide]
6.00 | CCCc1nnc(C(Cc2ccc(-c3cccc(CN(C)C(=O)c4ccc(Oc5ccccc5)cc4)c3)cc2)OCC)o1 (stereo not drawn) [Example 2, N-{4′-[2-ethoxy-2-(5-propyl[1,3,4]oxadiazol-2-yl)ethyl]biphenyl-3-ylmethyl}-N-methyl-4-phenoxybenzamide]
6.60 | CCCc1nnc(C(Cc2ccc(-c3cccc(CN(C)C(=O)c4ccc5cc(C(=O)OC)ccc5c4)c3)cc2)OCC)o1 (stereo not drawn) [Example 7, methyl 6-({4′-[2-ethoxy-2-(5-propyl[1,3,4]oxadiazol-2-yl)ethyl]biphenyl-3-ylmethyl}methylcarbamoyl)naphthalene-2-carboxylate]
